Results: ChEMBL document CHEMBL5344475, “Indole-containing pharmaceuticals: targets, pharmacological activities, and SAR studies” (RSC Med Chem, 2024)

Legend:
[1] = target: 5-hydroxytryptamine receptor 1B (Homo sapiens, UniProt P28222); assay: Binding affinity to 5-HT1B receptor (unknown origin) assessed as inhibition constant
[2] = Apparent oral clearance in human
[3] = Volume of distribution in Wistar rat; type: ADME; conditions: in vivo
[4] = Oral bioavailability in human; type: ADME, organism-based; conditions: in vivo
[5] = Plasma clearance in iv dosed human
[6] = Binding affinity to 5-HT3R (unknown origin) assessed as inhibition constant; design: species or system Homo sapiens
[7] = Volume of distribution at steady state in iv dosed human; conditions: in vivo, read-out: Vdss
[8] = Elimination half life in human; type: ADME; conditions: read-out: beta t1/2 (converted)
Half life in human = conditions: in vivo
[9] = Terminal half life in iv dosed mouse; type: ADME, organism-based; conditions: in vivo, read-out: beta t1/2 (converted)
[10] = target: 5-hydroxytryptamine receptor 2B (Homo sapiens, UniProt P41595); assay: Binding affinity to 5-HT2B receptor (unknown origin) assessed as inhibition constant
[11] = Volume of distribution in human; type: ADME
[12] = Elimination half life in rat; type: ADME; conditions: in vivo, read-out: beta t1/2 (converted)
[13] = Binding affinity to MT1 receptor (unknown origin) assessed as inhibition constant; design: species or system Homo sapiens
[14] = Volume of distribution in human at 80 to 100 mg; type: ADME; conditions: dose 80-100 mg
[15] = Half life in human plasma; type: ADME, cell-free
[16] = Oral bioavailability in mouse; type: ADME, organism-based; conditions: in vivo
[17] = Tmax in human; type: ADME
[18] = Terminal half life in human at 10 mg/kg, iv; conditions: in vivo, read-out: beta t1/2 (converted)
[19] = AUC (0 to 24 hrs) in human at 40 mg, po by LC-MS/MS analysis; conditions: in vivo
[20] = Terminal half life in human; type: ADME; conditions: read-out: beta t1/2 (converted)
[21] = Cmax in human plasma; type: ADME, cell-free
[22] = Initial half life in iv dosed mouse; conditions: in vivo, read-out: beta t1/2
[23] = target: 5-hydroxytryptamine receptor 1D (Homo sapiens, UniProt P28221); assay: Binding affinity to 5-HT1DR (unknown origin) assessed as inhibition constant
Chain of 5-hydroxytryptamine receptor 1D (P28221 whole entry): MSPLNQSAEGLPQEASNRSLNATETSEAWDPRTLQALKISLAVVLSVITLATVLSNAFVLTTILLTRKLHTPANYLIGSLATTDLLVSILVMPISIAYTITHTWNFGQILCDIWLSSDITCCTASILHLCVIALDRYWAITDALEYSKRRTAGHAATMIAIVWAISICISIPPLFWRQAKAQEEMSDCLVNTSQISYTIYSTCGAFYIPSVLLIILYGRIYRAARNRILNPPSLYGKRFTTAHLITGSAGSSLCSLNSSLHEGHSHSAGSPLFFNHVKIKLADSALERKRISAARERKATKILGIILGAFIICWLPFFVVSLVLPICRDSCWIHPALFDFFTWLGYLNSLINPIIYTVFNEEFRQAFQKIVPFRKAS

Chain of 5-hydroxytryptamine receptor 1B (P28222 whole entry): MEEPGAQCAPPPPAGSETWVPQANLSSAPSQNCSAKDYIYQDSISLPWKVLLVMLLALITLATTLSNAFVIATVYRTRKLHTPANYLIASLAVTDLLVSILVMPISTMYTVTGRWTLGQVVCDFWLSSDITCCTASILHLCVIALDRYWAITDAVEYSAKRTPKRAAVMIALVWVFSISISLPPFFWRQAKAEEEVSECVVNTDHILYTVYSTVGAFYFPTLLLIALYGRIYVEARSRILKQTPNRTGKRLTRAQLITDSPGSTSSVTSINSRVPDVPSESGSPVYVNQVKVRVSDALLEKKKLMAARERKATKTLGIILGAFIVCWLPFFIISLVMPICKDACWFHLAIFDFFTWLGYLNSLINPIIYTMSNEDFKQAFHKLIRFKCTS
Chain of 5-hydroxytryptamine receptor 2B (P41595 whole entry): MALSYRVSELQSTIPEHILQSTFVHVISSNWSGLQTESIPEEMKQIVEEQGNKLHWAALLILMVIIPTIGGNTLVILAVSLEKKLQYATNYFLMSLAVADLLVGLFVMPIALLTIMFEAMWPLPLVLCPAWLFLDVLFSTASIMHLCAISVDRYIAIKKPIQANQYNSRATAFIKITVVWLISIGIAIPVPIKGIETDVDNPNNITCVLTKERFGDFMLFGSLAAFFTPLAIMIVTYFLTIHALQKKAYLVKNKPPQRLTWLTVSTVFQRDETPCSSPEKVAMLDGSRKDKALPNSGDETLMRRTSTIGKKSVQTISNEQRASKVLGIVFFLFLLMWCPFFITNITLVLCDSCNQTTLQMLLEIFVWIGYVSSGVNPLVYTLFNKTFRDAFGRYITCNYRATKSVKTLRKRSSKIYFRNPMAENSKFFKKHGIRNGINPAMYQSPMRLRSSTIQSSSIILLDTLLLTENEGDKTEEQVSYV

SMILES: CNS(=O)(=O)CCc1ccc2[nH]cc(C3CCN(C)CC3)c2c1
- Ki [1]: 1.5 nM

SMILES: CCc1cc2c(cc1N1CCC(N3CCOCC3)CC1)C(C)(C)c1[nH]c3cc(C#N)ccc3c1C2=O [ALECTINIB]
- CL/F [2]: 1370 mL/min
- Vd [3]: 4020 L

SMILES: Cc1[nH]cnc1CN1CCc2c(c3ccccc3n2C)C1=O [ALOSETRON]
- bioavailability [4]: 50%
- clearance [5]: 600 mL/min
- Ki [6]: 0.5 nM
- Vd [7]: 65 L
- half-life [8]: 1.5 h

SMILES: COc1ccccc1OCCNCC(O)COc1cccc2[nH]c3ccccc3c12 (stereo unspecified) [CARVEDILOL]
- half-life (Half life in human): 7 h

SMILES: CN1C[C@H](C(=O)N[C@]2(C)O[C@@]3(O)[C@@H]4CCCN4C(=O)[C@H](Cc4ccccc4)N3C2=O)C[C@@H]2c3cccc4[nH]cc(c34)C[C@H]21 [DIHYDROERGOTAMINE]
- half-life [9]: 9 h
- Ki [10]: 3.7 nM

SMILES: O=C(O[C@@H]1C[C@@H]2C[C@H]3C[C@H](C1)N2CC3=O)c1c[nH]c2ccccc12 [DOLASETRON]
- Vd [11]: 5.8 L/kg

SMILES: CC(C)n1c(/C=C/C(O)CC(O)CC(=O)O)c(-c2ccc(F)cc2)c2ccccc21 (stereo unspecified) [FLUVASTATIN]
- Vd [11]: 0.35 L/kg

SMILES: COc1ccc2c(c1)c(CC(=O)O)c(C)n2C(=O)c1ccc(Cl)cc1 [INDOMETHACIN]
- half-life [12]: 7 h

SMILES: COc1ccc2[nH]cc(CCNC(C)=O)c2c1 [MELATONIN]
- half-life [8]: 1 h
- Ki [13]: 0.05 nM

SMILES: CC[C@@H](CO)NC(=O)[C@@H]1C=C2c3cccc4[nH]cc(c34)C[C@H]2N(C)C1 [METHYLERGONOVINE]
- bioavailability [4]: 40%
- Vd [14]: 2.4 L/kg
- half-life (Half life in human): 2.5 h

SMILES: CO[C@@H]1[C@H](N(C)C(=O)c2ccccc2)C[C@H]2O[C@]1(C)n1c3ccccc3c3c4c(c5c6ccccc6n2c5c31)C(=O)NC4 [MIDOSTAURIN]
- half-life [15]: 21 h
- Vd [11]: 95.2 L

SMILES: Cc1nccn1CC1CCc2c(c3ccccc3n2C)C1=O (stereo unspecified) [ONDANSETRON]
- bioavailability [4]: 56%
- Ki [10]: 2.5 nM
- half-life [8]: 3.1 h

SMILES: Cc1[nH]c2ccccc2c1CCNCc1ccc(/C=C/C(=O)NO)cc1 [PANOBINOSTAT]
- half-life [15]: 37 h
- CL/F [2]: 2670 mL/min

SMILES: CCCN1C[C@H](CSC)C[C@@H]2c3cccc4[nH]cc(c34)C[C@H]21 [PERGOLIDE]
- bioavailability [16]: 55%

SMILES: CC(C)NCC(O)COc1cccc2[nH]ccc12 (stereo unspecified) [PINDOLOL]
- Vd [14]: 2 L/kg
- half-life (Half life in human): 3 h
- Tmax [17]: 1 h

SMILES: O=C1NCCN1CCN1CCC(c2cn(-c3ccc(F)cc3)c3ccc(Cl)cc23)CC1 [SERTINDOLE]
- bioavailability [4]: 75%
- Vd [14]: 20 L/kg
- half-life (Half life in human): 53 h

SMILES: CCCCCNC(=N)N/N=C/c1c[nH]c2ccc(OC)cc12 [TEGASEROD]
- half-life [18]: 11 h
- clearance [5]: 1280 mL/min
- Vd [7]: 368 L

SMILES: CN1[C@@H]2CC[C@H]1C[C@@H](OC(=O)c1c[nH]c3ccccc13)C2 [TROPISETRON]
- bioavailability [4]: 60%
- half-life [15]: 5 h

SMILES: N#Cc1ccc2[nH]cc(CCCCN3CCN(c4ccc5oc(C(N)=O)cc5c4)CC3)c2c1 [VILAZODONE]
- AUC [19]: 1.65 µg·h/mL
- half-life [20]: 25 h
- Cmax [21]: 0.156 µg/mL

SMILES: CC[C@]1(O)C[C@@H]2CN(CCc3c([nH]c4ccccc34)[C@@](C(=O)OC)(c3cc4c(cc3OC)N(C)[C@H]3[C@@](O)(C(=O)OC)[C@H](OC(C)=O)[C@]5(CC)C=CCN6CC[C@]43[C@@H]65)C2)C1 [VINBLASTINE]
- half-life [9]: 1.6 h

SMILES: COC(=O)[C@@H]1[C@H]2C[C@H]3c4[nH]c5ccccc5c4CCN3C[C@@H]2CC[C@@H]1O [YOHIMBINE]
- half-life [22]: 3.7 min
- half-life [8]: < 1 h

SMILES: CN(C)CCc1c[nH]c2ccc(C[C@H]3COC(=O)N3)cc12 [ZOLMITRIPTAN]
- Ki [1]: 0.4 nM
- Ki [23]: 0.4 nM
